Measurements from ChEMBL document CHEMBL3425487, “Synthesis of new thiazolylmethoxyphenyl pyrimidines and antihyperglycemic evaluation of the pyrimidines, analogues isoxazolines and pyrazolines” (2015).

Test system: Rattus norvegicus
Test: Antihyperglycemic activity in normoglycemic male albino Sprague-Dawley rat assessed as improvement in sucrose tolerance at 100 mg/kg, po by Oral sucrose tolerance test
Format: functional

Row | SMILES | Activity
1 | c1ccc(C2=NNC(c3ccc(OCc4csc(-c5ccccc5)n4)cc3)C2)cc1 (stereo not drawn) | 7.42%
2 | COc1ccc(C2=NNC(c3ccc(OCc4csc(-c5ccccc5)n4)cc3)C2)cc1 (stereo not drawn) | 0.85%
3 | Fc1ccc(C2=NNC(c3ccc(OCc4csc(-c5ccccc5)n4)cc3)C2)cc1 (stereo not drawn) | 10.4%
4 | O=[N+]([O-])c1ccc(C2=NNC(c3ccc(OCc4csc(-c5ccccc5)n4)cc3)C2)cc1 (stereo not drawn) | 2.47%
5 | c1ccc(C2=NOC(c3ccc(OCc4csc(-c5ccccc5)n4)cc3)C2)cc1 (stereo not drawn) | 2.73%
6 | COc1ccc(C2=NOC(c3ccc(OCc4csc(-c5ccccc5)n4)cc3)C2)cc1 (stereo not drawn) | 8.37%
7 | Fc1ccc(C2=NOC(c3ccc(OCc4csc(-c5ccccc5)n4)cc3)C2)cc1 (stereo not drawn) | 4.88%
8 | O=[N+]([O-])c1ccc(C2=NOC(c3ccc(OCc4csc(-c5ccccc5)n4)cc3)C2)cc1 (stereo not drawn) | 0.91%
9 | S=C1NC(c2ccccc2)=CC(c2ccc(OCc3csc(-c4ccccc4)n3)cc2)N1 (stereo not drawn) | 0.07%
10 | COc1ccc(C2=CC(c3ccc(OCc4csc(-c5ccccc5)n4)cc3)NC(=S)N2)cc1 (stereo not drawn) | 1.05%
11 | Fc1ccc(C2=CC(c3ccc(OCc4csc(-c5ccccc5)n4)cc3)NC(=S)N2)cc1 (stereo not drawn) | 8.22%
12 | O=[N+]([O-])c1ccc(C2=CC(c3ccc(OCc4csc(-c5ccccc5)n4)cc3)NC(=S)N2)cc1 (stereo not drawn) | 7.04%
13 | CN(C)C(=N)NC(=N)N [METFORMIN] | 14.1%
